Data on two molecules can be found in patent publication US20180078482A1, “COMPOSITION CONTAINING THEASAPOGENOL DERIVATIVE AS ACTIVE INGREDIENT” (AMOREPACIFIC CORPORATION, priority 2015, published 2018).

One experiment has as its target T1, 5α-reductase (Homo sapiens, UniProt P31213).
T1 construct: 3×FLAG; expressed in transfected cells; host or cells: HEK293
T1 sequence (P31213 1-254): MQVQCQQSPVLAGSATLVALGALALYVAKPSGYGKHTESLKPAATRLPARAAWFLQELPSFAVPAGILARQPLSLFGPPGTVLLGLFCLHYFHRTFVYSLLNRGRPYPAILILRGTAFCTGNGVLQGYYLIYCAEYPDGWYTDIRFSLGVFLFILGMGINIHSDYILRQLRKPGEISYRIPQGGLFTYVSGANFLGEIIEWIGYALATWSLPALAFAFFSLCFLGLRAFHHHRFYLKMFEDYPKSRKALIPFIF
In words: Inhibition of 5α-reductase activity ([14C]testosterone to [14C]dihydrotestosterone conversion in HEK293-5αR2 cells). The experiment is classed as cell-based. To be noted: 2 μg/ml, 2 hours at 37° C.; for Conversion rate (%): radioactivity to DHT area/total radioactivity. The method, then: The 5α-reductase activity inhibiting effect was measured by the ratio of [^14C]testosterone converted into [^14C]dihydrotestosterone in HEK293-5αR2 cells. HEK293 cells were transfected with p3×FLAG-CMV-5αR2 and incubated in a 24-well plate at a density of 2.5×10^5 cells per well (Park et al., 2003, JDS Vol. 31, pp. 91-98). The next day, the medium was replaced with a fresh medium containing an enzyme substrate and an inhibitor, and 0.05 μCi [^14C]testosterone (Amersham Pharmacia biotech, UK) was used as the substrate of the medium. In order to confirm the degree of inhibition, 2 μg/ml of theasapogenol derivative obtained in Preparation Example 1 was added to the medium as a test substance, and the medium was incubated in a 5% CO2 incubator at 37° C. for 2 hours.
Thereafter, the incubated mediums were collected and testosterone was extracted with 800 μl of ethyl acetate. The upper organic solvent layer was separated and dried, and the residue was dissolved again in 50 μl of ethyl acetate and developed on the silica plastic sheet kieselgel 60 F254 by using ethyl acetate-hexane (1:1) as a developing solvent. After the plastic sample was dried in the air, a bath system was used to measure the amounts of isotopes, the dried plastic sheet and an x-ray film were placed in a bath cassette together, and the amounts of isotopes in testosterone and dihydrotestosterone remaining on the film after one week were measured.
(1) Conversion rate: radioactivity to DHT area/total radioactivity
(2) Inhibition rate: 100×(conversion rate of control group−conversion rate of sample)/conversion rate of control group

The next experiment deals with Fibroblasts. In words: Promotion of collagen biosynthesis (procollagen type (I) ELISA in fibroblasts). The experiment is classed as cell-based. The following applies: 2 μg/ml, 24 hours, untreated group set to 100. The method, then:
The collagen biosynthesis promoting effect of the theasapogenol derivative obtained in Preparation Example 1 was measured in comparison with TGF-beta of a positive control.
Fibroblasts were seeded by 10^5 in one well of a 24-well plate and incubated until they grew up to about 90%. This was incubated in serum-free DMEM medium for 24 hours and treated with 2 μg/ml of each of the theasapogenol derivative obtained in Preparation Example 1 and TGF-beta, and incubated in a CO2 incubator for 24 hours. Thereafter, the supernatant was taken out and subjected to the observation using the ELISA kit (procollagen type (I)) to determine whether the procollagen increased or decreased. The results are presented in Table 1, and the collagen synthesizing ability was compared by setting the collagen synthesizing ability of the untreated group to 100.
A general note: ELISA stands for enzyme-linked immunosorbent assay.

Where [1] appears, read: 100×(conversion rate of control group−conversion rate of sample)/conversion rate of control group.

For `CC(C)(C)NC(=O)[C@H]1CC[C@H]2[C@@H]3CC[C@H]4NC(=O)C=C[C@]4(C)[C@H]3CC[C@]12C` [Finasteride, reference compound], at 5α-reductase (setting [1]), testing at 2 µg/mL gave an inhibition of 44%. For the same molecule, the “Conversion rate (%)” value at 5α-reductase is given as 27%.
Regarding “21-O-angeloyltheasapogenol E3 [Preparation Example 1]”, the “Collagen synthesizing ability (%)” value with Fibroblasts is on record as 145.1 ± 12.5%. Further, the “Inhibition rate (%)” value at 5α-reductase (setting [1]) was determined as 38%. Also, at 5α-reductase, the “Conversion rate (%)” value was found to be 30%.

Usually inhibition stands for the relative decrease from the control value, in per cent. High values mean strong suppression, low ones little suppression.
